We go through seven compounds from patent publication US5721107A, “Antibodies to G protein coupled glutamate receptors” (priority 1995, dated 1998).

Where two headings read alike, the source gives them in different places.

In assay [1] the test system is glutamate G protein coupled receptor. Kind of assay: Voltage-clamp assay of injected oocytes, inhibition of glutamic acid-evoked current by putative antagonist. It counts as cell-based, rat. The conditions noted are these: antagonist 1 mM. The procedure:
Voltage clamp assays were also carried out on injected oocytes to measure the inhibition by the putative glutamate G protein coupled receptor antagonist, 2-amino-3-phosphonopropionic acid (AP3).

Assay [2] addresses T1, GluG R encoded by clone 45-A (Rattus norvegicus, UniProt P23385).
T1 construct: expressed in transfected cells; host or cells: Xenopus oocytes injected with in vitro transcribed RNA of clone 45-A (cDNA in pVEGT')
It counts as cell-based. The settings on record: normalized to 100 μM L-glutamate.

Assay [3] has as its system rat G protein coupled glutamate receptor. Kind of assay: Competition of tritiated glutamic acid binding to membrane preparations of transfected BHK cells. The settings on record: plus and minus quisqualate, 30 minutes, room temperature. As for the experimental part:
Transfected cell lines expressing GluG R were identified by the binding of ^3 H-glutamate to membrane preparations from transfected cells. Cell lines expressing low to moderate levels of GluG R are used to set up functional screening assays.
Clones of BHK 570 and BHK TK^- ts13 cells expressing the rat G protein coupled glutamate receptor cDNA were plated in two or three 150 mm maxi-plates culture dishes and were grown to confluency. The cells from each plate were scraped in 5 ml of PBS (phosphate buffered saline, Sigma Chemical Co., St. Louis, Mo.), which was pre-chilled to 4° C. The cells were removed to a chilled centrifuged tube, and the plates were each rinsed with 5 ml of chilled PBS and pooled with the cells. The chilled tubes were spun at 1,000 rpm for two minutes, and the supernatant was discarded. The cells were frozen at either -70° C. or on dry ice. In some cases, the cells were left overnight at -70° C. […] The filters were dried in a microwave oven and counted in a […].
Protein determinations were carried out using a Coomassie Blue-based assay from Pierce Chemical Company (Rockford, Ill.) under conditions set forth by the manufacturer. One hundred microliters of undiluted cell homogenate or BSA standard was added to 2 ml of reagent and the optical density was measured at 595 nm. […]

For another assay, the system named is GluG R. Kind of assay: Voltage-clamp response to quisqualate of oocytes injected with RNA from a subfractionated rat cerebellum cDNA library pool. It counts as cell-based. The conditions noted are these: RNA from subfractionated pool of 14,000 colonies; approximately 100 ng RNA per oocyte; estimated from digital panel meter. The procedure: Plasmid DNA from plates 25 to 32 were cesium chloride banded and transcribed into RNA as described above along with the positive parent pool Z99-25-32. Oocytes were injected with the RNA and voltage clamp assays, carried out as described above, identified pools Z104-25 and Z111-32 as being weakly positive, Z106-27 and Z109-30 as intermediately positive, and Z108-29 and Z110-31 as the most positive. The pool resulting in Z110-31 was chosen for further subdivision.
To confirm the result, plasmid DNA from clone #45 was prepared, transcribed and assayed in oocytes as described above. […] FIG. 2 illustrates the data taken from voltage-clamp recordings at several stages in the subfractionation of the cerebellum library. […] The peak current was truncated by the chart recorder, but the actual peak current (estimated from a digital panel meter) was approximately 1300 nA.

Setting [4] is: 100 μM, saturating concentration.

T1 sequence (P23385 33-1199): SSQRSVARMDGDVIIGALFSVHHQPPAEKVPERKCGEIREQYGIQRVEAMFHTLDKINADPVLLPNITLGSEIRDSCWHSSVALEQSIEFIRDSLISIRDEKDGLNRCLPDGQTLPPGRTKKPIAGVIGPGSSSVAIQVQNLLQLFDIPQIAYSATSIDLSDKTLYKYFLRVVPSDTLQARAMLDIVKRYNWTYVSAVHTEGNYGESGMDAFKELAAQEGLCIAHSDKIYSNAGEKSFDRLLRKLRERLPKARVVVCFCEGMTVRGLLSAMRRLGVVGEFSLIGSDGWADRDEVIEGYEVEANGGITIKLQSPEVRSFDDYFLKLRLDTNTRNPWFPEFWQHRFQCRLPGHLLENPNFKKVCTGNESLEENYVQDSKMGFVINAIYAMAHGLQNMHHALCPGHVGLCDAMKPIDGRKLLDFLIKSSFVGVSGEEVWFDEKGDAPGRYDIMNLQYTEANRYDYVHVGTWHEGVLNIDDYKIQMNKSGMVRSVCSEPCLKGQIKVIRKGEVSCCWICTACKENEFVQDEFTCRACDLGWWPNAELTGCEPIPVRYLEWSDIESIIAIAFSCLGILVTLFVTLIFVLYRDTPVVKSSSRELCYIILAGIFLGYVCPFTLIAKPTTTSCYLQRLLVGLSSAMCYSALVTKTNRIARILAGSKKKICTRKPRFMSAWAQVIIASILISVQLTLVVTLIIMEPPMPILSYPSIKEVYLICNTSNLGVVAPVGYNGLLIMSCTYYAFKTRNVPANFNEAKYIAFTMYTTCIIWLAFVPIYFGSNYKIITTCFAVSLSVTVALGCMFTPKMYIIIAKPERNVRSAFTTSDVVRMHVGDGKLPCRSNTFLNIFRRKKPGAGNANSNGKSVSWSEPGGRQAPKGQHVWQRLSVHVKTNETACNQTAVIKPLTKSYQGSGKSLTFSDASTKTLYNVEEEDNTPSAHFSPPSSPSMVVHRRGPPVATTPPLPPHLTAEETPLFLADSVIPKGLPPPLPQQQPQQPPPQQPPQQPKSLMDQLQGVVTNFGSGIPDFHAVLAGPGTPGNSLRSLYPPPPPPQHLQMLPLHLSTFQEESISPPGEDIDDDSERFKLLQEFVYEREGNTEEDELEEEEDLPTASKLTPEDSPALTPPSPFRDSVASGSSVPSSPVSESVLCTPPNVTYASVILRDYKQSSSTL

Take `NC(CP(=O)(O)O)C(=O)O` (racemic) [DL-AP3, 2-amino-3-phosphonopropionic acid]: the “current evoked by 10 μM glutamic acid, reduced to % of the control” value in assay [1] was 59.3±7.3 % of the control.
`Cc1onc(O)c1CC(N)C(=O)O` (stereo not drawn) [AMPA, α-amino-3-hydroxy-5-methyl-isoxazole-4-propionic acid]: the “response of oocytes to L-glutamic acid analog (effectiveness)” value in assay [2] (setting [4]) was “ineffective”.
The same measure, in the same setting: the result for `NC(CCP(=O)(O)O)C(=O)O` (centres unmarked) [APB, 2-amino-4-phosphonobytyric acid] reads “ineffective”.
For the compound `CN[C@H](CC(=O)O)C(=O)O` [NMDA, N-methyl-D-aspartic acid], in assay [2] (100 μM NMDA+10 μM glycine), the “response of oocytes to L-glutamic acid analog (effectiveness)” value is listed as “ineffective”.
Turning to `N[C@@H](Cn1oc(=O)[nH]c1=O)C(=O)O` [Quisqualic acid, quisqualic acid], the “competitive binding to glutamate receptor expressed by transfected BHK cells” value in assay [3] is “able to competitively bind the glutamate receptor”. The “peak current in response to quisqualate” value with GluG R is recorded as “approximately 1300 nA”.
On to `N[C@@H](CC(=O)O)C(=O)O` [aspartic acid], for which, in assay [2] (1 mM, saturating concentration), the “response of oocytes to L-glutamic acid analog (effectiveness)” value was “ineffective”.
With `C=C(C)[C@H]1CN[C@H](C(=O)O)[C@H]1CC(=O)O` [kainic acid], the “response of oocytes to L-glutamic acid analog (effectiveness)” value in assay [2] (1 mM, saturating concentration) was “ineffective”.
